Experimental data published in PMC8978639, “Fine-tuning of the pharmacological potential of novel thiazolium ionic liquids by anion alteration” (RSC Advances, 2021).
In brackets after ≈: the same amount, converted by molar mass. Where two headings read alike, the source gives them in different places.

Legend:
S. aureus (ATCC-25923) = assay: Minimal inhibitory/bactericidal concentrations (MIC/MBC); assay type: cell-based, Staphylococcus aureus; settings: for MBC ± SD / MIC ± SD: S. aureus
From the text: (§1) The antimicrobial activity of newly synthesized benzyl thiazolium ionic liquids (BTILs) was investigated in vitro against the most common foodborne bacterial strains (Staphylococcus aureus (S. aureus, ATCC-25923) and Escherichia coli (E. coli, ATCC-25922)) in comparison with clinical drugs (Gentamycin (Gm) and Tetracyclin (TC)). These tests have been conducted in accordance with the standard antimicrobial assessment protocols we've described and used in our previous studies.[29] The diameters of the zone of inhibition (ZOI, mm), values of minimum inhibitory concentration (MIC), and minimal bactericidal concentration (MBC) were used as markers for the antimicrobial efficacy of the tested compounds.
(§2) As evident in Table 2, the results of MIC and MBC are in general accordance with the Well diffusion assay. […] In the literature, quantitative information on the antimicrobial activity of short-chained and benzyl-functionalized ionic liquids is scarce. In this context, few studies have reported the antibacterial impact of 1-alkyl-3-methylimidazolium ionic liquids, bound to different anions, upon various pathogenic bacteria.

E. coli (ATCC-25922) = assay: as above; assay type: cell-based, Escherichia coli
From the text: as §1, §2

[1] = system: ovarian carcinoma cell lines (SKOV-3); assay: MTT cytotoxicity assay; assay type: cell-based, human; settings: for IC50: SKOV-3, MTT, 24 h of treatment; for Selectivity index (SI): cancer cells (SKOV-3) over normal ones (HSF)
Protocol: (§3) The antiproliferative activity of novel BTILs was tested in vitro against two cell lines: ovarian cancer (SKOV-3) and normal human skin fibroblast cells (HSF) using the standard MTT cytotoxicity assay described in our previous work.[30] The cell viability ratios, half-maximal inhibitory concentration (IC50), and selectivity index (SI) were used as performance indices for the cytotoxicity of tested compounds. The clinical anticancer drug (cisplatin, CDDP) was used as a positive control.
The use of ionic liquids (ILs) in pharmaceutical and medicinal chemistry has recently piqued the interest of researchers across the globe.[12] In this scenario, several studies have documented the anticancer potential of ILs.[20,48] In order to find potential safe anticancer candidates, the cytotoxicity of imidazolium, ammonium, pyridinium, and phosphonium ILs was tested against over 60 human cancer cell lines.[12,49] […] Besides, the cytotoxicity of ILs is strongly correlated to the counter anion. For instance, the cytotoxicity of 1-alkyl-3-methylimidazolium cation [RMIM]^+ follows the following trend; [RMIM][Tf2N] ≫ [RMIM][BF4] > [RMIM][Cl].[50] To our knowledge, no previous studies have been reported so far for using thiazolium ILs for anticancer purposes. These facts have inspired us to design and study the antiproliferative activity of new thiazolium ILs tethering different anions (BF4 (3a–c) and Tf2N (4a–c)) against ovarian carcinoma cell lines (SKOV-3) and normal human skin fibroblast cells (HSF). The 3-(4,5-dimethylthiazol-2-yl)-2,5-diphenyltetrazolium bromide (MTT) assay was used to carry out this study, with cisplatin (CDDP) serving as a positive control. Initially, the impacts of serial concentrations (2.5–100 μM) of the thiazolium ILs on the viability of the SKOV-3 cell lines were assessed as compared to CDDP. […] In general, TILs bound to Tf2N anion (4a–c) inhibited the proliferation of SKOV-3 cells more effectively than the corresponding tetrafluoroborate analogues (3a–c). For instance, [^iPBzTh][Tf2N] (4b) is the most cytotoxic one and can reduce the SKOV-3 cellular viability to a minimum value (10.5 ± 1.7%, Fig. 5A) at its treatment dosage of 100 μM. Conversely, [MBzTh][BF4]
At definite time intervals, the SKOV-3 cell viability has been measured.

[2] = system: normal human skin fibroblast cells (HSF); assay: MTT cytotoxicity assay; assay type: cell-based; settings: HSF, MTT, 24 h of treatment
Protocol: as §3
(§4) To explore the selectivity of the newly synthesized TILs for attacking cancer cells over normal ones, the effects of serial concentrations (0–200 μM) of these TILs on the proliferation of normal human skin fibroblast (HSF) cells were also studied for a period of 24 h. […] For example, treatment of both cell lines with 100 μM of [^iPBzTh][Tf2N] […] [MBzTh][BF4]

[3] = system: Staphylococcus aureus (S. aureus, ATCC-25923); assay: Well diffusion assay (zone of inhibition); assay type: cell-based
From the text: as §1, with “These tests have been conducted in accordance with the standard antimicrobial assessment protocols we've described and used in our previous studies.[29]” left out
The antibacterial activities of novel TILs against S. aureus and E. coli were screened in vitro, as compared to clinical antibiotics (Gentamycin (Gm) and Tetracyclin (TC)). […] Gram-negative bacteria' outer membranes, which are composed of impermeable lipopolysaccharides (LPS), phospholipids, and lipoproteins, may act as a barrier to the entry of antimicrobial molecules, whereas Gram-positive bacteria's outer membranes have no LPS layer and are composed only of a thick peptidoglycan layer which can easily absorb and transfer such antimicrobials to the inner cell membrane.[43]

S.aureus = system: S.aureus; parameters: method as in doi:10.1039/b921805j, doi:10.1016/j.molliq.2016.05.093; settings: cited from earlier work
E.coli = system: E.coli; parameters: method as in doi:10.1039/b921805j, doi:10.1016/j.molliq.2016.05.093; settings: cited from earlier work
MTT cytotoxicity assay = assay type: cell-based, human; settings: human, normal human skin fibroblast (HSF) cells; 200 μM, 24 h
Protocol: as §3, §4

[4] = Viscosity by capillary viscometer; assay type: physicochemical; settings: at 50 °C and concentrations 0.5 mg mL^−1, capillary viscometer
From the text: Also, the viscosity of new benzyl thiazolium ionic liquids depends on the intrinsic structural features of the cation and anion. […] This behavior can be explained based on the fact that the extremely hydrophobic Tf2N^− anion, enriched with fluorine electrons, exerts higher ion–ion interactions with hydrophobic tert-butylbenzyl-methylthiazolium cation, resulting in an increase in viscosity.[35]

[5] = Thermal stability by TG/DTG; assay type: physicochemical; settings: taken from DTG curves
Protocol: The thermogravimetric (TG) curves of the room temperature thiazolium ionic liquids (RTTILs) (3a, 4a–c) (Fig. 1A) were employed for the investigation of their thermal stabilities. It is evident that they are thermally stable up to 270 °C and then undergo a sharp degradation phase in the temperature range of 270–350 °C. […] The first main decomposition phase (∼81% weight loss) starts at 323 °C, followed by a modest decomposition stage between 496 and 618 °C. […] The first thermal degradation step begins at 298 °C (∼52% weight loss) and is followed by two smaller degradation steps at 353 and 418 °C, respectively.

Compound | MBC ± SD (S. aureus (ATCC-25923)) | MIC ± SD (S. aureus (ATCC-25923)) | MBC ± SD (E. coli (ATCC-25922)) | MIC ± SD (E. coli (ATCC-25922)) | IC50 [1] | Selectivity index (SI) [1] | IC50 [2] | Zone of inhibition (ZOI) [3] | other results
Cc1csc[n+]1Cc1ccc(C(C)(C)C)cc1.[Cl-] [2c, 3-(4-(tert-Butyl)benzyl)-4-methylthiazol-3-ium chloride] | 3.75 ± 0.14 mM | 3.75 ± 0.19 mM | 6.25 ± 0.29 mM | 6.25 ± 0.27 mM | – | – | – | – | –
Cc1csc[n+]1Cc1ccc(C(C)C)cc1.F[B-](F)(F)F [3b, 3-(4-Isopropylbenzyl)-4-methylthiazol-3-ium tetrafluoroborate] | 2.56 ± 0.15 mM | 2.56 ± 0.13 mM | 6.25 ± 0.23 mM | 5.25 ± 0.29 mM | 35.7 ± 1.03 µM | 4.26 | 152 ± 9.15 µM | 41.86 mm | –
Gentamycin [reference compound] | – | – | – | 6.85 ± 0.63 mM | – | – | – | – | –
CN(C)[C@@H]1C(O)=C(C(N)=O)C(=O)[C@@]2(O)C(O)=C3C(=O)c4c(O)cccc4[C@@](C)(O)[C@H]3C[C@@H]12 [Tetracycline, reference compound] | – | – | – | – | – | – | – | – | MIC (S. aureus (ATCC-25923); Staphylococcus aureus, ATCC25923, S. aureus): 7.2 ± 0.66 mM (≈ 3200 µg/mL)
CCCCCCn1cc[n+](C)c1.O=S(=O)([N-]S(=O)(=O)C(F)(F)F)C(F)(F)F [1-hexyl-3-methylimidazolium bis((trifluoromethyl)sulfonyl)amide] | – | – | – | – | – | – | – | – | MBC (S.aureus): 9.13 mM; MIC (S.aureus): 9.13 mM; MBC (E.coli): 24.59 mM; MIC (E.coli): 24.59 mM
[NH2][Pt]([NH2])([Cl])[Cl] [CDDP, cisplatin, reference compound] | – | – | – | – | 79.5 ± 1.18 µM | 0.73 | 58.3 ± 6.67 µM | – | SKOV-3 cell viability ([1]; IC50 dose, after 72 h): 10.2 ± 2.7%
Cc1csc[n+]1Cc1ccc(C(C)(C)C)cc1.F[B-](F)(F)F [3c, 3-(4-(tert-Butyl)benzyl)-4-methylthiazol-3-ium tetrafluoroborate] | 3.12 ± 0.14 mM | 3.12 ± 0.19 mM | 6.50 ± 0.39 mM | 6.50 ± 0.39 mM | 51.1 ± 2.33 µM | 3.76 | 191 ± 9.85 µM | 39.02 mm | –
Cc1ccc(C[n+]2cscc2C)cc1.F[B-](F)(F)F [3a, 3-(4-Methylbenzyl)-4-methylthiazol-3-ium tetrafluoroborate] | 3.25 ± 0.21 mM | 3.25 ± 0.19 mM | 5.75 ± 0.45 mM | 5.75 ± 0.41 mM | 78 ± 1.35 µM | 2.28 | – | 39.21 mm | Reduction in SKOV-3 viability ([1]; 100 μM, 24 h): 54.6%; IC50 ([2]; Homo sapiens, Skin fibroblast, 24 h): 178 ± 8.79 µM; viability at 24 h, 200 µM (MTT cytotoxicity assay): 45.5 ± 4.1%; η (viscosity) [4]: 439.25 ± 5.3 cP; T dec (decomposition temperature) [5]: 340.3 °C
Cc1ccc(C[n+]2cscc2C)cc1.[Cl-] [2a, 3-(4-Methylbenzyl)-4-methylthiazol-3-ium chloride] | 4.25 ± 0.31 mM | 4.05 ± 0.29 mM | 12.25 ± 0.36 mM | 6.75 ± 0.35 mM | – | – | – | – | MBC ± SD (S. aureus (ATCC-25923); listed as [MBzTh][Cl]): 4.25 mM; MIC ± SD (S. aureus (ATCC-25923); listed as [MBzTh][Cl]): 4.05 mM; MBC ± SD (E. coli (ATCC-25922); listed as [MBzTh][Cl]): 12.25 mM; MIC ± SD (E. coli (ATCC-25922); listed as [MBzTh][Cl]): 6.75 mM
Cc1csc[n+]1Cc1ccc(C(C)C)cc1.[Cl-] [2b, 3-(4-Isopropylbenzyl)-4-methylthiazol-3-ium chloride] | 2.35 ± 0.28 mM | 2.35 ± 0.27 mM | 5.25 ± 0.29 mM | 5.25 ± 0.31 mM | – | – | – | 32.13 mm | –
